Here are results for 28 compounds from patent publication US20100075960A1 (priority 2006, published 2010).

The structures appear in SMILES notation.

For the assay, the system named is HCT116. The experiment in a line: Inhibition of cell proliferation, HCT116. Particulars: Homo sapiens, HCT-116; 72 h treatment; methylene blue or CellTiter-Glo. It counts as cell-based. The procedure: II. Inhibition of Cell Proliferation by PLK1 Inhibitors.
Exponentially growing cell lines of different tumor origins, cultured in appropriate media containing 10% fetal bovine serum at 37° C. in a 5% CO2 incubator were plated in 96 or 384-well plates. Twenty four hours post-plating, cells were treated with different concentrations of test compounds ranging from 20 μM to 0.04 nM. Several wells were left untreated as a control. Seventy two hours post-treatment, cell numbers were determined using different techniques; 100 μl per well of methylene blue (Sigma M9140) (0.5% in 50:50 Ethanol:water), or 10-100 μl per well of CellTiter-Glo (Promega #G7573), depending on well size. For methylene blue staining, stain was incubated at room temperature for 30 minutes before plates were rinsed and dye solubilized in 1% N-lauroyl sarcosine, sodium salt, (Sigma L5125, in PBS). Plates were read on a microplate reader, measuring the OD at 620 nm. For CellTiter-Glo, plates were incubated at room temperature for 15 minutes and the chemiluminescent signal was read on the Victor V or Envison 2100 reader.
Percent inhibition of cell growth was expressed as percent proliferation relative to 100% proliferation (control). Concentration of test compound that inhibited 50% of cell growth (IC50) was determined by 4 parameter fit of data using XLfit, (value of no cell control was substracted from all samples for background). The data are shown in Table 1 and Table 2 below and represent a compilation of several different experiments each performed using the general parameters outlined above, although minor variations may have been employed in some instances, in Table 1 and Table 2, +=IC50>1 μM; ++=IC50 0.5-1 μM: +++=IC50<0.5 μM.
One may read the IC50 as the concentration that gives 50% inhibition. Higher therefore signals weaker potency. In the case of `C[C@@H](Oc1cc(-n2cnc3cc(F)c(Cl)cc32)sc1C(N)=O)c1cccc(OC2CCN(C)CC2)c1Cl` [Example 70, 5-(6-Chloro-5-fluoro-1H-benzimidazol-1-yl)-3[((1R)-1-(2-chloro-3-[(1methyl-4-piperidinyl)oxy]phenyl}ethyl)oxy]-2-thiophenecarboxamide], the IC50 was below 500 nM.

Take `COc1cc2ncn(-c3cc(O[C@H](C)c4cccc(OCC5CCN(C)CC5)c4Cl)c(C(N)=O)s3)c2cc1OC` [Example 41, 5-[5,6-Bis(methyloxy)-1H-benzimidazol-1-yl]-3-{[(1R)-1-(2-chloro-3-{[(1-methyl-4-piperidinyl)methyl]oxy}phenyl)ethyl]oxy}-2-thiophenecarboxamide]: the IC50 was below 500 nM.

`C[C@@H](Oc1cc(-n2cnc3cc(-c4cnn(C)c4)ccc32)sc1C(N)=O)c1cccc(OC2CCN(C(=O)OC(C)(C)C)CC2)c1Cl` [Example 46, 1,1-Dimethylethyl 4-({3-[(1R)-1-({2-(aminocarbonyl)-5-[5-(1-methyl-1H-pyrazol-4-yl)-1H-benzimidazol-1-yl]-3-thienyl}oxy)ethyl]-2-chlorophenyl}oxy)-1-piperidinecarboxylate] registered an IC50 below 500 nM.

`COc1cc2ncn(-c3cc(O[C@H](C)c4cccc(OCCN5CCN(C)CC5)c4Cl)c(C(N)=O)s3)c2cc1OC` [Example 42, 5-[5,6-Bis(methyloxy)-1H-benzimidazol-1-yl]-3-{[(1R)-1-(2-chloro-3-{[2-(4-methyl-1-piperazinyl)ethyl]oxy}phenyl)ethyl]oxy}-2-thiophenecarboxamide] had an IC50 below 500 nM.

For `C[C@@H](Oc1cc(-n2cnc3cc(Br)ccc32)sc1C(N)=O)c1cccc(OC2CCN(C)CC2)c1Cl` [Example 51, 5-(5-Bromo-1H-benzimidazol-1-yl)-3-[((1R)-1-{2-chloro-3-[(1-methyl-4-piperidinyl)oxy]phenyl}ethyl)oxy]-2-thiophenecarboxamide], the half-inhibitory concentration (IC50) is below 500 nM.

As to `C[C@@H](Oc1cc(-n2cnc3ccc(CS(C)(=O)=O)cc32)sc1C(N)=O)c1cccc(OCC2CCCN2C)c1Cl` (stereo partly shown) [Example 57], the IC50 is above 1000 nM.

The compound `C[C@@H](Oc1cc(-n2cnc3cc(-c4cnn(C)c4)ccc32)sc1C(N)=O)c1cccc(OCCN2CCOCC2)c1Cl` [Example 25, 3-{[(1R)-1-(2-chloro-3-{[2-(4-morpholinyl)ethyl]oxy}phenyl)ethyl]oxy}-5-[5-(1-methyl-1H-pyrazol-4yl)-1H-benzimidazol-1-yl]-2-thiophenecarboxamide] displayed an IC50 below 500 nM.

With `CC(Oc1cc(-n2cnc3cc(-c4cnn(C)c4)ccc32)sc1C(N)=O)c1cccc(OC2CCN(C)CC2)n1` (racemic) [Example 82, (±)-3-[(1-{6-[(1-Methyl-4-piperidinyl)oxy]-2-pyridinyl)ethyl)oxy]-5-[5-(1-methyl-1H-pyrazol-4-yl)-1H-benzimidazol-1-yl]-2-thiophenecarboxamide], the IC50 is above 1000 nM.

Compound `COc1cc2ncn(-c3cc(O[C@H](C)c4cccc(NCC5CCN(C)CC5)c4Cl)c(C(N)=O)s3)c2cc1OC` [Example 2] had an IC50 below 500 nM.

On to `C[C@@H](Oc1cc(-n2cnc3ccc(Cl)cc32)sc1C(N)=O)c1cccc(OC2CCNCC2)c1Cl` [Example 52, 5-(6-Chloro-1H-benzimidazol-1-yl)-3-({(1R)-1-[2-chloro-3-(4-piperidinyloxy)phenyl}ethyl)oxy)-2-thiophenecarboxamide], for which the IC50 was below 500 nM.

In turn, `Cn1cc(-c2ccc3c(c2)ncn3-c2cc(OCc3cccc(OC4CCNCC4)c3)c(C(N)=O)s2)cn1` [Example 83, 5-[5-(1-Methyl-1H-pyrazol-4-yl)-1H-benzimidazol-1-yl]-3-({[3-(4-piperidinyloxy)phenyl]methyl}oxy)-2-thiophenecarboxamide] displayed an IC50 above 1000 nM.

With `C[C@@H](Oc1cc(-n2cnc3ccccc32)sc1C(N)=O)c1cccc(OCCN2CCN(C)CC2)c1Cl` [Example 17], the 50% inhibitory concentration (IC50) is below 500 nM.

For `C[C@@H](Oc1cc(-n2cnc3ccc(C#N)cc32)sc1C(N)=O)c1cccc(OC2CCNCC2)c1Cl` [Example 5, 3-{(1R)-1-[2-chloro-3-(piperidin-4-yloxy)phenyl]ethoxy}-5-(6-cyano-1H-benzimidazol-1-yl)thiophene-2-carboxamide], the IC50 was below 500 nM.

In the case of `C[C@@H](Oc1cc(-n2cnc3cc(-c4cnn(C)c4)ccc32)sc1C(N)=O)c1c(F)ccc(OC2CCN(C)CC2)c1Cl` [Example 38, 3-[((1R)-1-{2-Chloro-6-fluoro-3-[(1-methyl-4-piperidinyl)oxy]phenyl}ethyl)oxy]-5-[5-(1-methyl-1H-pyrazol-4-yl)-1H-benzimidazol-1-yl]-2-thiophenecarboxamide], the concentration for half-maximal inhibition (IC50) is below 500 nM.

`C[C@@H](Oc1cc(-n2cnc3cc(-c4cnn(C)c4)ccc32)sc1C(N)=O)c1ccc(F)c(OC2CCNCC2)c1Cl` [Example 33, 3-({(1R)-1-[2-Chloro-4-fluoro-3-(4-piperidinyloxy)phenyl]ethyl}oxy)-5-[5-(1-methyl-1H-pyrazol-4-yl)-1H-benzimidazol-1-yl]-2-thiophenecarboxamide] had a half-maximal inhibitory concentration (IC50) below 500 nM.

`C[C@@H](Oc1cc(-n2cnc3ccc(Br)cc32)sc1C(N)=O)c1cccc(OC2CCNCC2)c1Cl` [Example 7, 5-(6-Bromo-1H-benzimidazol-1-yl)-3-({(1R)-1-[2-chloro-3-(4-piperidinyloxy)phenyl]ethyl}oxy)-2-thiophenecarboxamide] had an IC50 below 500 nM.

In turn, `CC(Oc1cc(-n2cnc3cc(-c4cnn(C)c4)ccc32)sc1C(N)=O)c1ccnc(OC2CCN(C)CC2)n1` (racemic) [Example 78, (±)-3-[(1-(2-[(1-methyl-4-piperidinyl)oxy]-4-pyrimidinyl}ethyl)oxy]-5-[5-(1-methyl-1H-pyrazol-4-yl)-1H-benzimidazol-1-yl]-2-thiophenecarboxamide] came in with an IC50 above 1000 nM.

`C[C@@H](Oc1cc(-n2cnc3cc(Cl)c(Cl)cc32)sc1C(N)=O)c1cccc(OC2CCN(C)CC2)c1Cl` [Example 72, 3-[((1R)-1-(2-chloro-3-[(1-methyl-4-piperidinyl)oxy]phenyl}ethyl)oxy]-5-(5,6-dichloro-1H-benzimidazol-1-yl)-2-thiophenecarboxamide]: the IC50 is below 500 nM.

For `CCN1CCC(Oc2cccc([C@@H](C)Oc3cc(-n4cnc5cc(Cl)ccc54)sc3C(N)=O)c2Cl)CC1` [Example 19, 5-(5-Chloro-1H-benzimidazol-1-yl)-3-[((1R)-1-{2-chloro-3-[(1-ethyl-4-piperidinyl)oxy]phenyl}ethyl)oxy]-2-thiophenecarboxamide], the half-inhibitory concentration (IC50) was below 500 nM.

In turn, `C[C@@H](Oc1cc(-n2cnc3cc(-c4cccnc4)ccc32)sc1C(N)=O)c1cccc(OC2CCN(C)CC2)c1Cl` [Example 11, 3-[((1R)-1-[2-chloro-3-[(1-methyl-4-piperidinyl)oxy]phenyl}ethyl)oxy}-5-[5-(3-pyridinyl)-1H-benzimidazol-1-yl]-2-thiophenecarboxamide] showed an IC50 below 500 nM.

In the case of `CC(Oc1cc(-n2cnc3cc(-c4cnn(C)c4)ccc32)sc1C(N)=O)c1cccc(OC2CCNCC2)c1F` (racemic) [Example 75], the concentration for half-maximal inhibition (IC50) is below 500 nM.

Take `C[C@@H](Oc1cc(-n2cnc3cc(Cl)ccc32)sc1C(N)=O)c1cccc(OC2CCN(CCF)CC2)c1Cl` [Example 21, 5-(5-Chloro-1H-benzimidazol-1-yl)-3-{[(1R)-1-(2-chloro-3-{[1-(2-fluoroethyl)-4-piperidinyl]oxy}phenyl)ethyl]oxy}-2-thiophenecarboxamide]: the IC50 was below 500 nM.

As to `C[C@@H](Oc1cc(-n2cnc3cc(-c4cc[n+]([O-])cc4)ccc32)sc1C(N)=O)c1cccc(OC2CCNCC2)c1Cl` [Example 37, 3-({(1R)-1-1-[2-Chloro-3-(4-piperidinyloxy)phenyl]ethyl}oxy)-5-[5-(1-oxido-4-pyridinyl)-1H-benzimidazol-1-yl]-2-thiophenecarboxamide], the IC50 is above 1000 nM.

Compound `COc1cc2ncn(-c3cc(O[C@H](C)c4cccc(OCC5CCNCC5)c4Cl)c(C(N)=O)s3)c2cc1OC` [Example 40, 5-[5,6-Bis(methyloxy)-1H-benzimidazol-1-yl]-3-[((1R)-1-{2-chloro-3-[(4-piperidinylmethyl)oxy]phenyl}ethyl)oxy]-2-thiophenecarboxamide] returned an IC50 below 500 nM.

Take `C[C@@H](Oc1cc(-n2cnc3ccccc32)sc1C(N)=O)c1cccc(OC2CCN(C)CC2)c1Cl` [Example 13, 5-(1H-benzimidazol-1-yl)-3-[((1R)-1-{2-chloro-3-[(1-methyl-4-piperidinyl)oxy]phenyl}ethyl)oxy]-2-thiophenecarboxamide]: the 50% inhibitory concentration (IC50) was below 500 nM.

`COc1cc2ncn(-c3cc(O[C@H](C)c4cccc(NCC5CCNCC5)c4Cl)c(C(N)=O)s3)c2cc1OC` [Example 1] gave a concentration for half-maximal inhibition (IC50) of 500 to 1000 nM.

As to `Cc1cc(-c2ccc3c(c2)ncn3-c2cc(O[C@H](C)c3cccc(OC4CCN(C)CC4)c3Cl)c(C(N)=O)s2)ccn1` [Example 50, 3-[((1R)-1-{2-Chloro-3-[(1-methyl-4-piperidinyl)oxy]phenyl}ethyl)oxy]-5-[5-(2-methyl-4-pyridinyl)-1H-benzimidazol-1-yl]-2-thiophenecarboxamide], the concentration for half-maximal inhibition (IC50) is below 500 nM.

Turning to `C[C@@H](Oc1cc(-n2cnc3ccc(CS(C)(=O)=O)cc32)sc1C(N)=O)c1cccc(OC2CCNCC2)c1Cl` [Example 54], the IC50 was above 1000 nM.
